The values that follow come from US20100056483A1, “METHODS AND COMPOSITIONS FOR THE TREATMENT AND PREVENTION OF BONE LOSS” (OHIO UNIVERSITY, priority 2008, published 2010).

The conditions of data set [1]: OVX rats; 200 mg/kg/day CaEDTA intraperitoneal; weighed weekly. As to the method: The temperature inside the chambers was 22° C. (±2) with relative humidity from 40 to 60%.
The rats were weighed and euthanized with carbon dioxide.

The conditions of data set [2]: broad-spectrum divalent-cation chelator; cited from earlier work.

SMILES strings stand for the structures.

Turning to `O=C(O)CN(CCN(CC(=O)O)CC(=O)O)CC(=O)O.[Ca]` [CaEDTA, Calcium ethylenediaminetetra-acetic acid], the “Effect on body weight” value in data set [1] is “no effect on body weight”. Besides, the “Affinity for zinc relative to calcium” value in data set [2] was “binds zinc with higher affinity than Calcium”.
